# According to patent US20050124690A1, “Pharmaceutical composition for the treatment of seborrhea containing 4-hydroxy-5-methoxy-4-[2-methyl-3(3-methyl-2-butenyl)-2-oxiranyl]-1-oxaspiro[2,5]octan-6-one” (priority 2002, published 2005):
# Experiments:
# Pityrosporum ovale [1] = experiment: Paper disc diffusion test for antifungal activity; assay type: cell-based; details: 45 μl of 0.1% acetone solution on paper disc; 30° C., 3 days
# Protocol: A paper disc diffusion method was used to investigate antifungal activity against a fungus, Pityrosporum ovale. Sabouraud's dextrose solid medium containing 1% of corn oil and 0.1% Tween-80 was aliquotted onto 87 mm plane plates, and allowed to harden. In order to examine antifungal activity against P. ovale, […] of P. ovale cultured in Sabouraud's dextrose solid medium at 30° C. for 2 days was smeared onto the plates, and then dried. 45 μl of an acetone solution containing 0.1% of 4-hydroxy-5-methoxy-4-[2-methyl-3-(3-methyl-2-butenyl)-2-oxiranyl]-1-oxaspiro[2,5]octan-6-one was aliquated onto paper discs, and, after completely evaporating off the acetone, put onto the P. ovale-smeared medium. Plates not treated with 4-hydroxy-5-methoxy-4-[2-methyl-3-(3-methyl-2-butenyl)-2-oxiranyl]-1-oxaspiro[2,5]octan-6-one were used as controls. Thereafter, incubation was carried out at 30° C. for 3 days, and it was observed whether a growth inhibition area formed around the discs or not.
# Pityrosporum ovale [2] = experiment: Minimum inhibition concentration (MIC) on Sabouraud's dextrose solid medium; assay type: cell-based; details: Malassezia furfur; solid medium with 1% corn oil and 0.1% Tween-80; 30° C., 3 to 5 days; naked eye
# Protocol: For use in this test, P. ovale was cultured in Sabouraud's dextrose solid medium containing 1% corn oil and 0.1% Tween-80 at 30° C. for 2 days. After Sabouraud's dextrose solid medium containing 1% corn oil and 0.1% Tween-80 was aliquotted onto 6 cm plane plates, 4-hydroxy-5-methoxy-4-[2-methyl-3-(3-methyl-2-butenyl)-2-oxiranyl]-1-oxaspiro[2,5]octan-6-one was added in various concentration. When the medium was hardened, 150 μl of the cultured P. ovale was smeared onto the medium, followed by incubation at 30° C. for 3 to 5 days. Observing with naked eye, a minimum concentration capable of inhibiting the growth of the fungus was determined as MIC (Minimum Inhibition Concentration).
# MIC versus P. ovale of 4-hydroxy-5-methoxy-4-[2-methyl-3-(3-methyl-2-butenyl)-2-oxiranyl]-1-oxaspiro[2,5]octan-6-one is given in Table 1, below.
# [3] = test system: four-week old female rats; experiment: Acute dermal toxicity test; assay type: in vivo; details: 4000 mg/kg applied to about 10% of body surface area of shaved rats; observation for 15 days
# Protocol: 4-hydroxy-5-methoxy-4-[2-methyl-3-(3-methyl-2-butenyl)-2-oxiranyl]-1-oxaspiro[2,5]octan-6-one, which was isolated from the culture filtrate and then purified, was tested for acute dermal toxicity using four-week old female rats, according to the standards provided by the Korean Food & Drug Administration. After the rats were shaved, 4000 mg/kg (body weight) of the compound was uniformly applied to about 10% of body surface area of rats.
structure (smiles),measurement,setting,value
"COC1C(=O)CCC2(CO2)C1(O)C1(C)OC1CC=C(C)C (stereo not drawn) [4-hydroxy-5-methoxy-4-[2-methyl-3-(3-methyl-2-butenyl)-2-oxiranyl]-1-oxaspiro[2,5]octan-6-one]",antifungal activity against P. ovale (growth inhibition area around the discs),Pityrosporum ovale [1],found to have antifungal activity
same,MIC,Pityrosporum ovale [2],< 2 µg/mL
same,"irritation, such as erythema or crusting",[3],not detected irritation
